Measurements published in US20250019705A1, “PHARMACEUTICAL COMPOSITION FOR PREVENTING OR TREATING TARGET CANCER INCLUDING BRCA-SPECIFIC siRNA AS ACTIVE INGREDIENT” (KOREA INSTITUTE OF SCIENCE AND TECHNOLOGY, priority 2023, published 2025).

Assays:
Format in all cases: cell-based, mouse
ID8 cells = assay: PARP inhibitor IC50 analysis through MTS assay in ID8 cells incubated with vSIRPα-siBRCA
Description: (§1) FIG. 9A, FIG. 9B, FIG. 9C, and FIG. 9D illustrate a result of treating ID8 cells incubated with vSIRPα-siBRCA with a PARP inhibitor (Olaparib or Talazoparib) and performing IC50 analysis through MTS assay.
(§2) Knockdown and knockout of BRCA genes were highly correlated with the efficacy of synthetic lethal cell death induction of the PARP inhibitor. Therefore, whether the PARP inhibitor, after silencing the expression of BRCA1/2, could induce apoptosis of tumor cells was required confirmation. BRCA1 and/or BRCA2 may be effectively knocked down by treating ID8 cells with the vSIRPα-siBRCA conjugates. Therefore ID8 cells were treated with the vSIRPα-siBRCA conjugates for 48 hours and then treated with Talazoparib at various concentrations for 72 hours.

phospho-H2AX (γH2AX) = assay: DNA damage analysis by flow cytometry after PARP inhibitor in BRCA silenced cells; details: for γH2AX increase compared with control group: 0.01 μM Talazoparib
Description: The ID8 cells were dispensed in a 6-well plate at 2×10^5 cells/dish and incubated for 48 hours with PBS, vSIRPα-siBRCA1, vSIRPα-siBRCA2, and vSIRPα-siBRCA1/2. Subsequently, the cells were trypsinized and dispensed in a 6-well plate at 2×10^5 cells/dish, and treated with Olaparib or Talazoparib at a predetermined concentration for 24 to 48 hours.
Subsequently, the cells were detached with Trypsin-EDTA, blocked for 30 minutes using a PBS solution containing 1% FBS, and then a phospho-H2AX antibody was incubated for 2 hours. Thereafter, after PBS washing, flow cytometry was performed using a FACS device to measure phospho-H2AX antibody staining
To evaluate the level of PARP inhibitor-mediated DNA damage in BRCA gene-silenced cells, the expression levels of phospho-H2AX (γH2AX), a DNA damage marker, were measured by flow cytometry.
ID8 cells were treated with vSIRPα-siBRCA1 and vSIRPα-siBRCA2 alone or in combination, respectively, and after 48 hours, each cell type was treated with a PARP inhibitor, Talazoparib, and incubated for 48 hours.

[1] = system: BRCA1-deficient ID8 cells; assay: PARP inhibitor IC50 analysis through MTS assay in BRCA1-deficient ID8 cells with BRCA2 knockdown; details: BRCA1-deficient ID8 cells with BRCA2 knocked down
Description: as §1, §2

[2] = BRCA1-knockdown (silenced) ID8 cells, vSIRPα-siBRCA 48 hours then PARP inhibitor 72 hours
[3] = BRCA1/2 silenced ID8 cells (vSIRPα-siBRCA1 and vSIRPα-BRCA2 together), 48 hours then PARP inhibitor 72 hours
[4] = BRCA2-knockdown (silenced) ID8 cells, vSIRPα-siBRCA 48 hours then PARP inhibitor 72 hours

Structure (SMILES) | fold reduction of IC50 of PARP inhibitor vs BRCA normal-expressing (control) ID8 cells (ID8 cells; [2]) | fold reduction of IC50 of PARP inhibitor vs BRCA normal-expressing (control) ID8 cells (ID8 cells; [3]) | fold reduction of IC50 of PARP inhibitor vs BRCA normal-expressing (control) ID8 cells (ID8 cells; [4]) | γH2AX increase compared with control group (phospho-H2AX (γH2AX); BRCA1/2 silenced ID8 cells (both conjugates 48 hours)) [fold] | γH2AX increase compared with control group (phospho-H2AX (γH2AX); BRCA1 silenced ID8 cells (vSIRPα-siBRCA1 48 hours)) | γH2AX increase compared with control group (phospho-H2AX (γH2AX); BRCA2 silenced ID8 cells (vSIRPα-siBRCA2 48 hours)) [fold] | expression levels of γH2AX (phospho-H2AX (γH2AX); ID8-sgBRCA1/2 cells, Talazoparib 48 hours) | fold reduction of IC50 of PARP inhibitor by BRCA2 knockdown [1]
O=C(c1cc(Cc2n[nH]c(=O)c3ccccc23)ccc1F)N1CCN(C(=O)C2CC2)CC1 [Olaparib] | about 3.76 fold | about 13.97 fold | about 2.77 fold | – | – | – | – | –
Cn1ncnc1[C@H]1c2n[nH]c(=O)c3cc(F)cc(c23)N[C@@H]1c1ccc(F)cc1 [Talazoparib] | 3.23 fold | 28.11 fold | 4.34 fold | ~3.06 | about 1.32 fold | ~2.16 | significantly increased | about 3.6 fold
